From US20260053767A1, “Hepatoprotective Compositions And Methods” (Jemyll, Ltd., priority 2022, published 2026)
Entries after “also recorded” stand apart in the source; their conditions may differ.

Experiments:
Wistar rats [1] = experiment: Glucose challenge test and body weight in rats on high fat/high cholesterol diet, water with DDA at 1% of caloric intake; format: in vivo
Text: (§1) Animal Studies. All in vivo studies used Wistar rats that were kept for 9 weeks on a high fat/high cholesterol diet. The animals were then separated into two groups, a control group that continued the high fat/high cholesterol diet with regular water, whereas the treatment group continued the high fat/high cholesterol diet with water containing DDA (dodecanedioic acid) in an amount of 1% of the caloric intake. After all animals were separated in the respective test groups, body weights were recorded, and a glucose challenge test administered. […] Such effect is particularly unexpected as the quantity of DDA in the food was well below any quantity that was reasonably expected.

Wistar rats [2] = experiment: Liver histology (H&E, red oil ORO, Sirius red) in rats on high fat/high cholesterol diet with or without DDA; format: in vivo
Text: as §1
While not wishing to be bound by any specific theory or hypothesis, the inventors contemplate that the DDA at the low levels inhibits the trans-differentiation of hepatic stellate cells to myofibroblasts that produce extracellular matrix proteins (including collagen), likely by protecting them from damage due to reactive oxygen species (ROS).

[3] = test system: liver cells (AML-12 cells); experiment: Total antioxidant capacity in liver cells; format: cell-based; conditions: AML-12 liver cells, in the presence of hydrogen peroxide
Text: To that end, the inventors used endothelial cells (EOMA cells) and liver cells (AML-12 cells) in vitro and quantified various markers in response to exposure of the cells to environmental challenge in the presence and absence of DDA at low concentrations. Unless indicated otherwise, the DDA concentration in the in vitro experiments was 5 mcg per microliter. More specifically, the inventors measured p-H2AX protein levels as a marker for DNA damage, PGC-1α protein levels as a marker for mitochondrial biogenesis, NAMPT enzyme levels as a marker for potential for NAD+ production, and total antioxidant capacity as a marker of cellular health. In addition, the inventors also measured global SIRT activity as a gauge of activity for all SIRT enzymes, and in particular SIRT1 enzyme levels as markers for autophagy and various beneficial processes associated with a caloric restricted diet, and SIRT3 levels as markers for mitochondrial function and longevity.

[4] = test system: primary human hepatocytes; experiment: In vitro palmitic acid stimulation, gene expression by quantitative real-time PCR; format: cell-based
Procedure: Total RNA from human primary hepatocytes was extracted using the RNeasy Plus Mini Kit according to the indications provided by the company. A small aliquot of total RNA obtained (3 μl) was subjected to qualitative and quantitative control by using the microdrop. The qualitative and quantitative assessment of the individual samples was determined using a dedicated software. The total RNA was reverse transcribed into cDNA by using iScript RT. SYBR Green gene expression assays were performed according to the manufacturer's instruction using the iQTMSYBR Green Supermix and the CFX96 Touch Real-Time PCR Detection System. For this purpose, the following pairs of primer were used: solute carrier family 13 member 5 (SLC13A5) (forward 5′ […] 3′ (SEQ ID NO:1) and reverse 5′ […] 3′ (SEQ ID NO:2)), Diacylglycerol O-Acyltransferase 1 (DGAT1) (forward 5′ […] 3′ (SEQ ID NO:3) and reverse 5′ […] 3′ (SEQ ID NO:4)), Fatty Acid Synthase (FASN) (forward 5′ […] 3′ (SEQ ID NO:5) and reverse 5′ […] 3′ (SEQ ID NO:6)), carnitine palmitoyltransferase 1A (CPT1A) (forward 5′ […] 3′ (SEQ ID NO:7) and reverse 5′ […] 3′ (SEQ ID NO:8)) and Acetyl-CoA carboxylase (ACC1) (forward 5′ […] 3′ (SEQ ID NO:9) and reverse 5′ […] 3′ (SEQ ID NO:10)). mRNA expression levels were normalized to B2-microglobulin (forward 5′[…] 3′ (SEQ ID NO:11); and reverse 5′[…] 3′ (SEQ ID NO:12)) and quantification of relative gene expression, presented as percentage of the relevant baseline, was calculated using the 2-ACT (comparative threshold) method.
Isolation of human primary hepatocytes: Tissue obtained during percutaneous liver biopsy, was diced (<3 mm) and washed in HBSS to remove excess blood. Tissue was then transferred to a tube containing pre-warmed EGTA buffer (HBSS, 0.5 mM EGTA, 0.5% fatty acid free bovine serum albumin (BSA)) and agitated (100 rpm) in a water bath with shaking bed for 10 min, 37° C. After three washes, to remove the remaining blood and EGTA, the tissue was placed in pre-warmed digestion buffer (HBSS, 0.05% collagenase IV, 0.5% fatty acid free BSA, 10 mM CaC12) and agitated (100 rpm) in a water bath with shaking bed for 30 min, 37° C. The digested tissue was filtered through 100 μm cell strainer while the remaining tissue was again digested in fresh digestion buffer (20). Cell suspensions were pooled and centrifuged at 80 g for 5 min, 4° C. and the supernatant discarded. Cells were grown until confluent and used for citrate uptake analysis.
At the end of the stimulation de novo lipogenesis, fatty acid beta-oxidation and SLC13A5 gene expression were assessed by Quantitative Real-Time PCR Analysis.

cancer bearing mice = experiment: Administration of DDDA to cancer bearing mice; conditions: mouse, in vivo
Text: Thus, DDDA in low doses (5 g or less, or 4 g or less, or 3 g, or less, or 2 g or less, or 1 g or less) may be used for chemoprevention of HCC in healthy liver or livers of NASH/NAFLD individuals, presumably due to reduction of chronic subacute inflammation.

[5] = primary human hepatocytes, C12 1% (v/w) with palmitic acid 0.4 mM, vs palmitic acid alone

In the case of `O=C(O)CCCCCCCCCCC(=O)O` [DDDA, dodecanedioic acid], the “AUC blood glucose in glucose challenge” value (Wistar rats [1]) was “significantly reduced”, the “blood glucose spike in glucose challenge” value (Wistar rats [1]) was “significantly blunted” and the “liver tissue morphology under H&E stain” value (Wistar rats [2]; high fat/high cholesterol diet with DDA vs without) was “significantly closer to normal liver histology”. The “fatty deposits in liver tissue, red oil (ORO) stain” value (Wistar rats [2]; high fat/high cholesterol diet with low quantities of DDA) was “normal or near-normal microscopic appearance”, the “fibrosis (Sirius red, hepatic collagen): rats without DDA compared to rats with DDA” value (Wistar rats [2]; high fat/high cholesterol diet, DDA at low concentrations) was “significantly increased fibrosis as compared to those rats where the diet included DDA at low concentrations” and the “hepatoprotective effect (histopathology, overall)” value (Wistar rats [2]; low concentration of DDA in high fat/high cholesterol diet) was “substantial hepatoprotective effect”. For the same compound, the “cellular total antioxidant capacity” value ([3]; 6 hours, 5 mcg per microliter, p=0.001) was “maintains cellular total antioxidant capacity”, the “cellular total antioxidant capacity” value ([3]; 24 hours, same trend as 6 hours) was “did not reach a level of significance” and the “gene expression of citrate transporter SLC13A5” value ([4]; human hepatocytes, C12 1% (v/w) with palmitic acid 0.4 mM, vs palmitic acid alone, listed as C12) was “significant decrease; also recorded: reducing citrate transporter SLC13A5”. The “DNL in primary hepatocytes (figure legend)” value ([4]; palmitic acid 0.4 mM, C12 1%) was “reduces”, the “ACC1 (de novo lipogenesis enzyme)” value [4, 5] was “significant reduction” and the “CPT1A (fatty acid beta-oxidation enzyme)” value [4, 5] was “significant increase”. For the same compound, the “DGAT (de novo lipogenesis enzyme)” value [4, 5] was “significant reduction”, the “FASN (de novo lipogenesis enzyme)” value [4, 5] was “significant reduction” and the “effect in cancer bearing mice” value (cancer bearing mice) was “helpful for liver blastomas and potentially NASH associated carcinomas”.
